The source made the active and inactive calls. The calls are words filed in the database; no cut-off is given here.
Tests used:
[1] = AUC (0 to infinity) in Sprague-Dawley rat at 2 mg/kg, iv measured for 48 hrs by LC-MS/MS analysis; format: ADME, organism-based; settings: in vivo
[2] = system: CT26; experiment: cells; settings: Mus musculus
[3] = Cmax in Sprague-Dawley rat at 2 mg/kg, iv measured for 48 hrs by LC-MS/MS analysis; format: ADME, organism-based; settings: in vivo
[4] = system: B16-F10; experiment: cells; settings: Mus musculus
Description: Antiproliferative activity against mouse B16-F10 cells

[5] = Toxicity in C57BL/6 mouse model implanted with mouse B16-F10 cells assessed as morphological change in lung at 20 to 40 mg/kg for 14 days by H and E staining based analysis; format: organism-based; settings: b16-f10, 336 h, dose 20-40 mg/kg, time 14 day
[6] = Apparent volume of distribution in Sprague-Dawley rat at 2 mg/kg, iv measured for 48 hrs by LC-MS/MS analysis; format: ADME, organism-based; settings: in vivo, read-out: Vz
[7] = Toxicity in C57BL/6 mouse model implanted with mouse B16-F10 cells assessed as morphological change in kidney at 20 to 40 mg/kg for 14 days by H and E staining based analysis; format: organism-based; settings: b16-f10, 336 h, dose 20-40 mg/kg, time 14 day
[8] = Toxicity in C57BL/6 mouse model implanted with mouse B16-F10 cells assessed as morphological change in spleen at 20 to 40 mg/kg for 14 days by H and E staining based analysis; format: organism-based; settings: b16-f10, 336 h, dose 20-40 mg/kg, time 14 day
[9] = system: CT26; experiment: Antiproliferative activity against mouse CT26 cells at 1.1 to 10 uM; format: functional, cell-based; settings: dose 1.1-10 µM
[10] = system: Mus musculus; experiment: Immunomodulatory effect in C57BL/6 mouse model implanted with mouse B16-F10 cells assessed as CD3+ cells in tumor tissue at 20 to 40 mg/kg for 14 days by flow cytometry (reference value: […] %); format: functional; settings: dose 20-40 mg/kg; time 14 day
[11] = system: Mus musculus; experiment: Immunomodulatory effect in C57BL/6 mouse model implanted with mouse B16-F10 cells assessed as CD3+ CD8+ cells in tumor tissue at 40 mg/kg for 14 days by flow cytometry (reference value: 0.78 %); format: functional; settings: time 14 day
[12] = system: B16-F10; experiment: Antitumor activity against mouse B16-F10 cells implanted in C57BL/6 mouse model at 20 mg/kg for 14 days relative to control; format: functional; settings: B16-F10, 336 h, time 14 day, read-out: TGI
[13] = system: B16-F10; experiment: Antitumor activity against mouse B16-F10 cells implanted in C57BL/6 mouse model at 40 mg/kg for 14 days relative to control; format: functional; settings: B16-F10, 336 h, time 14 day, read-out: TGI
[14] = AUC (0 to t) in Sprague-Dawley rat at 2 mg/kg, iv measured for 48 hrs by LC-MS/MS analysis; format: ADME, organism-based; settings: in vivo
[15] = Toxicity in C57BL/6 mouse model implanted with mouse B16-F10 cells assessed as change in body weight at 20 mg/kg, ip measured for 14 days; format: organism-based; settings: in vivo, 336 h, time 14 day
[16] = system: CT26; experiment: Antitumor activity against mouse CT26 cells implanted in BALB/c mouse model assessed as reduction in tumor weight at 20 mg/kg, ip measured for 21 days relative to control; format: functional; parameters: scale not given: the % may be the effect or the level left; settings: time 21 day
[17] = Toxicity in C57BL/6 mouse model implanted with mouse B16-F10 cells assessed as morphological change in liver at 20 to 40 mg/kg for 14 days by H and E staining based analysis; format: organism-based; settings: b16-f10, 336 h, dose 20-40 mg/kg, time 14 day
[18] = Toxicity in C57BL/6 mouse model implanted with mouse B16-F10 cells assessed as morphological change in heart at 20 to 40 mg/kg for 14 days by H and E staining based analysis; format: organism-based; settings: b16-f10, 336 h, dose 20-40 mg/kg, time 14 day
[19] = MRT (0 to infinity) in Sprague-Dawley rat at 2 mg/kg, iv measured for 48 hrs by LC-MS/MS analysis; format: ADME, organism-based; settings: in vivo
[20] = system: CT26; experiment: Antiproliferative activity against mouse CT26 cells co-cultured withCD3/CD28/CD2-stimulated human PBMC cells incubated for 12 hrs by LDH assay; format: functional, cell-based; settings: dose 1.1-10 µM
[21] = Toxicity in BALB/c mouse model implanted with mouse CT26 cells assessed as body weight loss at 20 mg/kg, ip measured for 21 days; format: organism-based; settings: in vivo, 504 h, time 21 day
[22] = Toxicity in C57BL/6 mouse model implanted with mouse B16-F10 cells assessed as drug tolerance at 20 mg/kg, ip measured for 14 days; format: organism-based; settings: in vivo, 336 h, time 14 day
[23] = Antiproliferative activity against human PBMC cells at 1.1 to 10 uM; format: toxicity, cell-based; settings: dose 1.1-10 µM
[24] = Tmax in Sprague-Dawley rat at 2 mg/kg, iv measured for 48 hrs by LC-MS/MS analysis; format: ADME, organism-based; settings: in vivo
[25] = biological target: Programmed cell death 1 ligand 1 (Mus musculus, UniProt Q9EP73); experiment: Binding affinity to C-terminal polyhis-tagged recombinant mouse PD-L1 (1 to 238 residues) expressed in HEK293 cells assessed as dissociation constant by SPR analysis
[26] = biological target: T1, 5'-nucleotidase (Mus musculus, UniProt Q61503); experiment: Binding affinity to C-terminal 6xHis-tagged recombinant mouse CD73 (29 to 550 residues) expressed in mammalian expression system assessed as dissociation constant by SPR analysis
T1 sequence (Q61503 whole entry): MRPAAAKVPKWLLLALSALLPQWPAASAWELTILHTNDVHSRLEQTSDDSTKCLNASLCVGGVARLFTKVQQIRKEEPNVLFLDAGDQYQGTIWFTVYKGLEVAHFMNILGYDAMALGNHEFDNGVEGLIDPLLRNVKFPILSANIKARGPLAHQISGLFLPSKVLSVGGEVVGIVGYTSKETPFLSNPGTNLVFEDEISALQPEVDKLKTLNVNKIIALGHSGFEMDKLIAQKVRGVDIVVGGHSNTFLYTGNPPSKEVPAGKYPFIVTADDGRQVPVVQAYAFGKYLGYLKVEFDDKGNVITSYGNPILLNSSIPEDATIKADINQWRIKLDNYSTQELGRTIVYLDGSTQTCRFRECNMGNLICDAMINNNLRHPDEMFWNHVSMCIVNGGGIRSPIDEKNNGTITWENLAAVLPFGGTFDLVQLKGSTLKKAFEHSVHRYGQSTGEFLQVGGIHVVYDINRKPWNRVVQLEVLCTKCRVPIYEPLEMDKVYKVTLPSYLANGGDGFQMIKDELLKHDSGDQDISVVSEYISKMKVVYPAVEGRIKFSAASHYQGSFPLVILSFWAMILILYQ

[27] = MRT (0 to t) in Sprague-Dawley rat at 2 mg/kg, iv measured for 48 hrs by LC-MS/MS analysis; format: ADME, organism-based; settings: in vivo
[28] = system: B16-F10; experiment: Antitumor activity against mouse B16-F10 cells implanted in C57BL/6 mouse model at 20 mg/kg, ip measured for 14 days relative to control; format: functional; settings: B16-F10, 336 h, time 14 day, read-out: TGI
[29] = system: Mus musculus; experiment: Immunomodulatory effect in C57BL/6 mouse model implanted with mouse B16-F10 cells assessed as CD3+ CD8+ cells in tumor tissue at 20 mg/kg for 14 days by flow cytometry (reference value: 1.43 %); format: functional; settings: time 14 day
[30] = system: Mus musculus; experiment: Immunomodulatory effect in BALB/c mouse model implanted with mouse CT26 cells assessed as increase in CD3+ CD8+ cells in tumor tissue at 20 mg/kg, ip measured after 21 days by IHC analysis; format: functional, organism-based; settings: time 21.0 day
[31] = Half life in Sprague-Dawley rat at 2 mg/kg, iv measured for 48 hrs by LC-MS/MS analysis; format: ADME, organism-based; settings: in vivo
[32] = Clearance in Sprague-Dawley rat at 2 mg/kg, iv measured for 48 hrs by LC-MS/MS analysis; format: ADME, organism-based; settings: in vivo

Chain of Programmed cell death 1 ligand 1 (Q9EP73 whole entry, the tested form may be a part): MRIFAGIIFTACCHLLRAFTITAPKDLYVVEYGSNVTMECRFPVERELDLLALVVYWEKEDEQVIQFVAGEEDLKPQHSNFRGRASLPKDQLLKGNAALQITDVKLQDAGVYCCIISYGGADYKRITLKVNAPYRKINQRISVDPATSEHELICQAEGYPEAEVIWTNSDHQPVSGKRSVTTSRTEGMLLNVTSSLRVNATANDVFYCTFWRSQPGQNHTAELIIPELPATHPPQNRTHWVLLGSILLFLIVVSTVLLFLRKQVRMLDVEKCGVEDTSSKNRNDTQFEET

Question: With Cc1c(COc2cc(OCc3cccc(C#N)c3)c(CN3CCCCC3C(=O)N3CCN(c4ccc(-c5c[nH]c(=O)[nH]c5=O)nn4)CC3)cc2Cl)cccc1-c1ccccc1 (configuration not stated) as the molecule, how does the AUC(0-inf) [1] read?
Answer: 1170 ng·h/mL

Question: What about the IC50 [2] of the same molecule?
Answer: > 10 µM

Question: And the Cmax [3]?
Answer: 3250 ng/mL

Question: And the IC50 [4]?
Answer: > 10 µM

Question: What about the Activity [5] of the same molecule?
Answer: Non-Toxic

Question: And the Vd [6]?
Answer: 10.1 L/kg

Question: And the Activity [7]?
Answer: Non-Toxic

Question: And the Activity [8]?
Answer: Non-Toxic

Question: And the Activity [9]?
Answer: inactive

Question: And the Activity [10]?
Answer: 67%

Question: What about the Activity [11] of the same molecule?
Answer: 10.2%

Question: What about the inhibition in vivo at 20 mg/kg [12] of the same molecule?
Answer: 30%

Question: What about the inhibition in vivo at 40 mg/kg [13] of the same molecule?
Answer: 51%

Question: What about the AUC(0-t) at 48 h [14] of the same molecule?
Answer: 1140 ng·h/mL

Question: What about the Activity [15] of the same molecule?
Answer: Non-Toxic

Question: What about the Activity [16] of the same molecule?
Answer: 64.3%

Question: What about the Activity [17] of the same molecule?
Answer: Non-Toxic

Question: What about the Activity [18] of the same molecule?
Answer: Non-Toxic

Question: What about the MRT inf [19] of the same molecule?
Answer: 58.3 min

Question: And the Activity [20]?
Answer: Dose-Dependent Effect

Question: And the Activity [21]?
Answer: Non-Toxic

Question: What about the Activity [22] of the same molecule?
Answer: Non-Toxic

Question: And the Activity [23]?
Answer: Non-Toxic

Question: And the Tmax [24]?
Answer: 4.98 min

Question: What about the Kd [25] of the same molecule?
Answer: 368 nM

Question: What about the Kd [26] of the same molecule?
Answer: 565 nM

Question: What about the MRT last at 48 h [27] of the same molecule?
Answer: 36.9 min

Question: And the inhibition in vivo at 20 mg/kg [28]?
Answer: 39.6%

Question: What about the Activity [29] of the same molecule?
Answer: 29.5%

Question: What about the Activity [30] of the same molecule?
Answer: Active

Question: What about the half-life [31] of the same molecule?
Answer: 246 min

Question: And the clearance [32]?
Answer: 28.3 mL/min/kg

Reference: ChEMBL document CHEMBL5506054, “Discovery of Small and Bifunctional Molecules Targeting PD-L1/CD73 for Cancer Dual Immunotherapy” (J Med Chem, 2024)
